Source: ChEMBL document CHEMBL1141064, “Discovery and structure-activity relationships of novel sulfonamides as potent PTP1B inhibitors” (Bioorg Med Chem Lett, 2005)

Biological target: T1, Tyrosine-protein phosphatase non-receptor type 1 (Homo sapiens, UniProt P18031)
T1 sequence (P18031 whole entry): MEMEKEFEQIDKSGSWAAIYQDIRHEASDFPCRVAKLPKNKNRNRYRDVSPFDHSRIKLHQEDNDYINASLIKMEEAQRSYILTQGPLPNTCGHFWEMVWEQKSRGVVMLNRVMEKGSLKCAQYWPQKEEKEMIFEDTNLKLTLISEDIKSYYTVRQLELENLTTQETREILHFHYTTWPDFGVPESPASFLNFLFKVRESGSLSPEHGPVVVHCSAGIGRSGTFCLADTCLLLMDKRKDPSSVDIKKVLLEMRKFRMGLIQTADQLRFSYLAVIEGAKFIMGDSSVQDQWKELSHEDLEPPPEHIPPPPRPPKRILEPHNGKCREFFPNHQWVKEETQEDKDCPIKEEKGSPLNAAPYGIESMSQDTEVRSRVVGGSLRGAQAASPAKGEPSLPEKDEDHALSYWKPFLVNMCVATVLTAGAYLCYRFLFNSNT
Test: Inhibitory activity against protein tyrosine phosphatase 1B using O-methyl fluorescein monophosphate

SMILES	IC50 [µM]	Ki [µM]
CS(=O)(=O)Nc1ccc(CN(Cc2ccc(C(F)(F)P(=O)(O)O)cc2)S(=O)(=O)c2ccc(OCC(=O)O)cc2)cc1	0.18	–
Cc1cc(S(=O)(=O)N(Cc2ccccc2)Cc2ccc(C(F)(F)P(=O)(O)O)cc2)ccc1OCC(=O)O	4	–
O=C(O)COc1c(F)ccc(S(=O)(=O)N(Cc2ccccc2)Cc2ccc(C(F)(F)P(=O)(O)O)cc2)c1F	1.6	–
CC(=O)NCCN(Cc1ccc(C(F)(F)P(=O)(O)O)cc1)S(=O)(=O)c1ccc(OCC(=O)O)cc1	9	–
O=C(O)COc1ccc(S(=O)(=O)N(Cc2ccc(C(F)(F)P(=O)(O)O)cc2)c2ccc(-c3csnn3)cc2)cc1	0.22	–
CN(C)S(=O)(=O)c1ccc(CN(Cc2ccc(C(F)(F)P(=O)(O)O)cc2)S(=O)(=O)c2ccc(OCC(=O)O)cc2)cc1	1.1	–
O=C(O)COc1ccc(C(=O)N(Cc2ccc(-c3csnn3)cc2)Cc2ccc(C(F)(F)P(=O)(O)O)cc2)cc1	2.3	–
O=C(O)COc1ccc(S(=O)(=O)N(Cc2ccccc2)Cc2ccc(C(F)(F)P(=O)(O)O)cc2)cc1Br	4	–
O=C(O)COc1ccc(S(=O)(=O)N(Cc2ccccc2)Cc2ccc(C(F)(F)P(=O)(O)O)cc2)cc1OC(F)(F)F	5	–
O=C(O)COc1ccc(S(=O)(=O)N(Cc2ccc(C(F)(F)P(=O)(O)O)cc2)Cc2cccs2)cc1	1	–
CC(=O)c1cccc(CN(Cc2ccc(C(F)(F)P(=O)(O)O)cc2)S(=O)(=O)c2ccc(OCC(=O)O)cc2)c1	0.77	–
CN(Cc1ccccc1)C(=O)CN(Cc1ccc(C(F)(F)P(=O)(O)O)cc1)S(=O)(=O)c1ccc(OCC(=O)O)cc1	0.6	0.59
O=C(O)COc1ccc(S(=O)(=O)N(Cc2ccc(NC(=O)c3ccccc3)cc2)Cc2ccc(C(F)(F)P(=O)(O)O)cc2)cc1	0.63	–
O=C(O)COc1c(F)cc(S(=O)(=O)N(Cc2ccccc2)Cc2ccc(C(F)(F)P(=O)(O)O)cc2)cc1F	1	–
O=C(O)COc1ccc(S(=O)(=O)N(Cc2ccc(-c3csnn3)cc2)Cc2ccc(C(F)(F)P(=O)(O)O)cc2)cc1	0.074	0.056
COc1cc(CN(Cc2ccc(-c3csnn3)cc2)S(=O)(=O)c2ccc(OCC(=O)O)cc2)ccc1C(F)(F)P(=O)(O)O	0.06	–
CN(C)S(=O)(=O)c1ccc(CN(Cc2ccc(C(F)(F)P(=O)(O)O)c(Br)c2)S(=O)(=O)c2ccc(OCC(=O)O)cc2)cc1	0.028	0.013

SMILES	IC50 [µM]	Ki [µM]
O=C(O)c1cc(S(=O)(=O)N(Cc2ccccc2)Cc2ccc(C(F)(F)P(=O)(O)O)cc2)ccc1O	2.9	–
O=[N+]([O-])c1ccccc1S(=O)(=O)N(Cc1ccccc1)Cc1ccc(C(F)(F)P(=O)(O)O)cc1	7	–
CN(Cc1ccccc1)C(=O)CN(Cc1ccc(OCC(=O)O)cc1)Cc1ccc(C(F)(F)P(=O)(O)O)cc1	67.5	–
O=C(c1ccc(CN(Cc2ccccc2)S(=O)(=O)c2ccccc2[N+](=O)[O-])cc1)C(F)(F)P(=O)(O)O	12	–
O=P(O)(O)C(F)(F)c1ccc(CN(Cc2ccccc2)S(=O)(=O)c2ccccc2)cc1	4.2	–
O=C(O)COc1ccc(S(=O)(=O)N(Cc2ccccc2)Cc2ccc(C(F)(F)P(=O)(O)O)cc2)cc1F	3	–
O=P(O)(O)C(F)(F)c1ccc(CN(Cc2ccc(-c3csnn3)cc2)S(=O)(=O)c2ccccc2)cc1	0.21	0.098
Cc1cc(S(=O)(=O)N(Cc2ccccc2)Cc2ccc(C(F)(F)P(=O)(O)O)cc2)cc(C)c1OCC(=O)O	1.9	–
O=C(O)COc1ccc(S(=O)(=O)N(Cc2ccccc2)Cc2ccc(C(F)(F)P(=O)(O)O)cc2)cc1Cl	3	–
O=P(O)(O)C(F)(F)c1ccc(CNCc2ccc(-c3csnn3)cc2)cc1	13.7	–
O=C(O)COc1ccc(S(=O)(=O)N(CC(=O)N2CCCCC2)Cc2ccc(C(F)(F)P(=O)(O)O)cc2)cc1	6.8	–
O=C(O)COc1ccc(S(=O)(=O)N(Cc2ccc(-c3csnn3)cc2)Cc2ccc(C(F)(F)P(=O)(O)O)c(Br)c2)cc1	0.035	0.053
CN(Cc1ccccc1)C(=O)CN(Cc1ccc(C(F)(F)P(=O)(O)O)c(Br)c1)S(=O)(=O)c1ccc(OCC(=O)O)cc1	0.031	0.014
O=C(O)COc1ccc(S(=O)(=O)N(Cc2ccccc2)Cc2ccc(C(F)(F)P(=O)(O)O)cc2)cc1	0.6	–
COc1cc(CN(Cc2ccc(S(=O)(=O)N(C)C)cc2)S(=O)(=O)c2ccc(OCC(=O)O)cc2)ccc1C(F)(F)P(=O)(O)O	1.1	–
O=C(O)COc1ccc(S(=O)(=O)N(Cc2ccccc2)Cc2ccc(C(F)(F)P(=O)(O)O)cc2)cc1C(F)(F)F	4	–
O=C(c1ccc(O)cc1)N(Cc1ccc(-c2csnn2)cc1)Cc1ccc(C(F)(F)P(=O)(O)O)cc1	6.9	–
